According to paper PMC8752738, “A propolis-derived small molecule ameliorates metabolic syndrome in obese mice by targeting the CREB/CRTC2 transcriptional complex” (Nature Communications, 2022):
Several values for one entry are separate records, joined by “and”; a condition that tells them apart may be missing. Equal entries are not always repeated.

What was measured:
[1] = target: T1, HIS-CREB protein (Homo sapiens, UniProt P16220); assay: Isothermal titration calorimetry; type: binding; details: HIS-CREB titrated into APC solution, one-site model; read-out: equilibrium dissociation constant (KD) between APC and CREB
T1 construct: made in house
T1 sequence (P16220 whole entry): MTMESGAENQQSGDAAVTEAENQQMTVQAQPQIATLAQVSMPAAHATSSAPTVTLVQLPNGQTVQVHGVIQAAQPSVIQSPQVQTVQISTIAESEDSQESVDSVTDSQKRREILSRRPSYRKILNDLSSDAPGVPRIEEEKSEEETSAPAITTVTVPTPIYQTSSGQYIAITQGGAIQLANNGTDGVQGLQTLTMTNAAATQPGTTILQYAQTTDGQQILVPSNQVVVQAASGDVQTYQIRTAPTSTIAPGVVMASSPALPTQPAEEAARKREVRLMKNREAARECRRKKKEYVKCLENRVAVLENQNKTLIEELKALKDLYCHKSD
Procedure: Isothermal titration calorimetry was performed using a MicroCal iTC200 calorimeter (Freiburg, Germany). The purified HIS-CREB protein and APC were diluted in buffer (PBS with 500 mM NaCl and 10% glycine, pH 8.0). APC solution was titrated by injection of HIS-CREB. The originally released heat from molecules binding was recorded and analyzed by Origin9 software (Origin Lab) supplied with the instrument.

[2] = tested on: primary hepatocytes; assay: MTT assay, primary hepatocytes; type: cell-based, mouse; details: for Relative MTT absortance-48H, mean: n=5 (0 μM = 100); for Relative MTT absortance-48H: Supp. fig.3b, individual replicates
Procedure: Primary hepatocytes were exposed to APC at indicated concentrations for 48-h, then co-incubated with methyl thiazolyl tetrazolium (0.5 mg/mL in PBS, Sigma) solution for 5-h. After removing the solution, the purple crystals were dissolved using DMSO, and the absorbance was measured at 550 nm.

[3] = tested on: cAMP in primary hepatocytes; assay: Measurement of cAMP levels; type: cell-based, mouse; details: for cAMP, mean / cAMP: Gluc; for cAMP, mean: n=4 (Ctrl_Gluc 10.79); for cAMP: Supp. fig.3c, individual replicates
Procedure: At the end of indicated treatments, primary hepatocytes were collected in lysis buffer. The cAMP contents of cell lysates were then determined using cAMP ELISA kits (R&D) and normalized by total protein content as determined by BCA assay (Thermo).

[4] = Metabolic chamber assay; type: in vivo, mouse; details: DIO ip APC; for AUC of RER, %, group mean: mean of APC group, N=4; for AUC of RER, % / RER of DIO: single animals
Procedure: Metabolic parameters of mice were determined using Columbus Instruments Comprehensive Lab Animal Monitoring System (CLAMS). The area unit under the curve (AUC) of respiratory exchange ratio (RER) and ambulatory activity (X-TOT) were calculated using Graphpad prism 8.0.

CC(C)=CCc1cc(C=CC(=O)O)cc(CC=C(C)C)c1O [APC, 3,5-diprenyl-4-hydroxycinnamic acid]
Kd [1]: ~3.2 µM and 3.2 µM
Relative MTT absortance-48H, mean ([2]; APC 1 μM): 102
Relative MTT absortance-48H, mean ([2]; APC 5 μM): 103.2
Relative MTT absortance-48H, mean ([2]; APC 25 μM): 101.9
Relative MTT absortance-48H, mean ([2]; APC 100 μM): 105.7
hepatocyte viability ([2]; APC up to 100 μM, 48-h): did not impair hepatocyte viability
Relative MTT absortance-48H ([2]; APC 1 uM): 101.3514 and 105.1051 and 97.5976 and 102.8529 (2×)
Relative MTT absortance-48H ([2]; APC 5 uM): 99.8499 and 98.3484 and 103.6036 and 105.1051 and 108.8589
Relative MTT absortance-48H ([2]; APC 25 uM): 96.6066 and 104.3544 and 100.6006 and 99.6096 and 108.1081
Relative MTT absortance-48H ([2]; APC 100 uM): 107.3574 and 101.1111 and 106.6066 and 109.6096 and 103.6036
cAMP, mean ([3]; APC 0.5H): 11.36 pmol/µg
cAMP, mean ([3]; APC 1H): 10.43 pmol/µg
cAMP, mean ([3]; APC 5H): 10.31 pmol/µg
cAMP ([3]; APC 0.5H): 9.765 pmol/µg and 13.6965 pmol/µg and 13.5803 pmol/µg and 8.4137 pmol/µg
cAMP ([3]; APC 1H): 10.9076 pmol/µg and 11.1137 pmol/µg and 11.3636 pmol/µg and 8.343 pmol/µg
cAMP ([3]; APC 5H): 11.3502 pmol/µg and 9.481 pmol/µg and 11.2821 pmol/µg and 9.132 pmol/µg
cAMP accumulation induced by glucagon ([3]; primary hepatocytes): did not alter
AUC of RER, %, group mean ([4]; Dark): 65.31%
AUC of RER, %, group mean ([4]; Light): 53.9%
AUC of RER, % ([4]; Light): 54.07% and 52.83% and 53.85% and 54.85%
RER of DIO, column mean over the RER curve ([4]; Mean of APC, 70 intervals, 4 animals): 0.8038
AUC of RER, %, column mean over total, light and dark ([4]; Mean of APC, two-way RM ANOVA): 79.47%
AUC of RER, %, group mean ([4]; Total): 119.2%
AUC of RER, % ([4]; Total): 125.06% and 111.68% and 115.24% and 124.86%
AUC of RER, % ([4]; dark): 70.99% and 58.85% and 61.39% and 70.01%
RER of DIO ([4]; interval 1, hour 0): 0.728 and 0.729 (2×) and 0.733
RER of DIO ([4]; interval 2, hour 0.7): 0.795 and 0.774 and 0.72 and 0.734
RER of DIO ([4]; interval 3, hour 1.1): 0.732 and 0.773 and 0.726 and 0.735
RER of DIO ([4]; interval 4, hour 1.5): 0.747 and 0.761 and 0.73 and 0.738
RER of DIO ([4]; interval 5, hour 1.8): 0.78 and 0.778 and 0.722 and 0.754
RER of DIO ([4]; interval 6, hour 2.2): 0.747 and 0.794 and 0.723 and 0.738
RER of DIO ([4]; interval 7, hour 2.6): 0.764 and 0.792 and 0.716 and 0.758
RER of DIO ([4]; interval 8, hour 2.9): 0.779 and 0.804 and 0.705 and 0.738
RER of DIO ([4]; interval 9, hour 3.3): 0.766 and 0.82 and 0.724 and 0.727
RER of DIO ([4]; interval 10, hour 3.7): 0.818 and 0.814 and 0.729 and 0.75
RER of DIO ([4]; interval 11, hour 4.0): 0.78 and 0.803 and 0.732 and 0.733
RER of DIO ([4]; interval 12, hour 4.4): 0.735 and 0.792 and 0.714 and 0.756
RER of DIO ([4]; interval 13, hour 4.8): 0.768 and 0.812 and 0.743 and 0.781
RER of DIO ([4]; interval 14, hour 5.1): 0.759 and 0.799 and 0.716 and 0.757
RER of DIO ([4]; interval 15, hour 5.5): 0.769 and 0.778 and 0.775 and 0.742
RER of DIO ([4]; interval 16, hour 5.9): 0.783 and 0.804 and 0.718 and 0.774
RER of DIO ([4]; interval 17, hour 6.2): 0.75 and 0.77 and 0.709 and 0.78
RER of DIO ([4]; interval 18, hour 6.6): 0.801 and 0.79 and 0.715 and 0.767
RER of DIO ([4]; interval 19, hour 7.0): 0.759 and 0.797 and 0.758 and 0.785
RER of DIO ([4]; interval 20, hour 7.3): 0.769 and 0.747 and 0.713 and 0.758
RER of DIO ([4]; interval 21, hour 7.7): 0.841 and 0.78 and 0.749 and 0.771
RER of DIO ([4]; interval 22, hour 8.1): 0.782 and 0.771 and 0.743 and 0.797
RER of DIO ([4]; interval 23, hour 8.4): 0.804 and 0.814 and 0.781 and 0.79
RER of DIO ([4]; interval 24, hour 8.8): 0.838 and 0.788 and 0.764 and 0.822
RER of DIO ([4]; interval 25, hour 9.2): 0.844 and 0.798 and 0.804 and 0.842
RER of DIO ([4]; interval 26, hour 9.5): 0.809 and 0.808 and 0.794 and 0.831
RER of DIO ([4]; interval 27, hour 9.9): 0.818 and 0.808 and 0.792 and 0.849
RER of DIO ([4]; interval 28, hour 10.3): 0.832 and 0.843 and 0.84 and 0.846
RER of DIO ([4]; interval 29, hour 10.6): 0.841 and 0.824 and 0.818 and 0.858
RER of DIO ([4]; interval 30, hour 11.0): 0.821 and 0.847 and 0.832 (2×)
RER of DIO ([4]; interval 31, hour 11.4): 0.844 and 0.835 and 0.841 and 0.829
RER of DIO ([4]; interval 32, hour 11.7): 0.827 and 0.833 and 0.828 and 0.825
RER of DIO ([4]; interval 33, hour 12.1): 0.841 and 0.831 and 0.816 (2×)
RER of DIO ([4]; interval 34, hour 12.5): 0.864 and 0.863 and 0.842 and 0.837
RER of DIO ([4]; interval 35, hour 12.8): 0.866 and 0.842 and 0.843 and 0.836
RER of DIO ([4]; interval 36, hour 13.2): 0.891 and 0.836 and 0.797 and 0.825
